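48-hour exposure; five concentrations; linearly interpolated endpoints. GI50 is the concentration that inhibits growth by half. The concentration for full growth arrest is given as TGI.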
What was measured:
Test in all cases: NCI tumour cell line growth inhibition, 48 h
NCI-H226 lung = test system: NCI-H226 lung
OVCAR-3 ovarian = test system: OVCAR-3 ovarian
SF-295 CNS = test system: SF-295 CNS
SF-539 CNS = test system: SF-539 CNS
U251 CNS = test system: U251 CNS
HCT-15 colon = test system: HCT-15 colon
EKVX NSCLC = test system: EKVX NSCLC
SK-MEL-2 melanoma = test system: SK-MEL-2 melanoma
SK-MEL-28 melanoma = test system: SK-MEL-28 melanoma
OVCAR-8 ovarian = test system: OVCAR-8 ovarian

Compound | GI50 (NCI-H226 lung) [µM] | TGI (NCI-H226 lung) [µM] | GI50 (OVCAR-3 ovarian) [µM] | TGI (OVCAR-3 ovarian) [µM] | GI50 (SF-295 CNS) [µM] | TGI (SF-295 CNS) [µM] | GI50 (SF-539 CNS) [µM] | TGI (SF-539 CNS) [µM] | GI50 (U251 CNS) [µM] | TGI (U251 CNS) [µM] | GI50 (HCT-15 colon) [µM] | TGI (HCT-15 colon) [µM] | GI50 (EKVX NSCLC) [µM] | TGI (EKVX NSCLC) [µM] | GI50 (SK-MEL-2 melanoma) [µM] | TGI (SK-MEL-2 melanoma) [µM] | GI50 (SK-MEL-28 melanoma) [µM] | TGI (SK-MEL-28 melanoma) [µM] | GI50 (OVCAR-8 ovarian) [µM] | TGI (OVCAR-8 ovarian) [µM]
O=C([CH-]C(=O)c1ccccc1)c1ccccc1.[C-]#[O+].[C-]#[O+].[Ir] | 33.3 | > 100 | > 100 | > 100 | 42.9 | > 100 | 99.4 | > 100 | 36.4 | > 100 | 42.6 | > 100 | > 100 | > 100 | > 100 | > 100 | 87 | > 100 | 45.4 | > 100
Cc1cc(N(CCC#N)S(=O)(=O)c2ccccc2)ccc1C=Nc1cccc(C(=O)O)c1 |  | > 100 |  | > 100 |  | > 100 |  | > 100 |  | > 100 |  | > 100 |  | > 100 |  | > 100 |  | > 100 |  | > 100
